Experimental data from PubChem BioAssay (NCI).
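All cell lines were grown in 96-well plates and treated with compound for 48 hours. At the TGI there is no net growth.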

Legend:
Assay in all cases: NCI-60 cell line screen, 48 h
786-0 renal = tested on: 786-0 renal
A549 NSCLC = tested on: A549 NSCLC
ACHN renal = tested on: ACHN renal
BT-549 breast = tested on: BT-549 breast
CAKI-1 renal = tested on: CAKI-1 renal
CCRF-CEM leukemia = tested on: CCRF-CEM leukemia
COLO 205 colon = tested on: COLO 205 colon
DU-145 prostate = tested on: DU-145 prostate
EKVX NSCLC = tested on: EKVX NSCLC
HCC-2998 colon = tested on: HCC-2998 colon
HCT-116 colon = tested on: HCT-116 colon
HCT-15 colon = tested on: HCT-15 colon
HOP-62 NSCLC = tested on: HOP-62 NSCLC
HOP-92 NSCLC = tested on: HOP-92 NSCLC
HS 578T breast = tested on: HS 578T breast
HT29 colon = tested on: HT29 colon
IGROV1 ovarian = tested on: IGROV1 ovarian
KM12 colon = tested on: KM12 colon
LOX IMVI melanoma = tested on: LOX IMVI melanoma
M14 melanoma = tested on: M14 melanoma
MALME-3M melanoma = tested on: MALME-3M melanoma
MCF7 breast = tested on: MCF7 breast
MDA-MB-435 = tested on: MDA-MB-435
MDA-N = tested on: MDA-N
MOLT-4 leukemia = tested on: MOLT-4 leukemia
NCI-H226 lung = tested on: NCI-H226 lung
NCI-H23 lung = tested on: NCI-H23 lung
NCI-H522 lung = tested on: NCI-H522 lung
NCI/ADR-RES ovarian = tested on: NCI/ADR-RES ovarian
OVCAR-3 ovarian = tested on: OVCAR-3 ovarian
OVCAR-4 ovarian = tested on: OVCAR-4 ovarian
OVCAR-5 ovarian = tested on: OVCAR-5 ovarian
OVCAR-8 ovarian = tested on: OVCAR-8 ovarian
PC-3 prostate = tested on: PC-3 prostate
RPMI-8226 leukemia = tested on: RPMI-8226 leukemia
RXF 393 renal = tested on: RXF 393 renal
SF-268 CNS = tested on: SF-268 CNS
SF-295 CNS = tested on: SF-295 CNS
SF-539 CNS = tested on: SF-539 CNS
SK-MEL-2 melanoma = tested on: SK-MEL-2 melanoma
SK-MEL-28 melanoma = tested on: SK-MEL-28 melanoma
SK-MEL-5 melanoma = tested on: SK-MEL-5 melanoma
SK-OV-3 ovarian = tested on: SK-OV-3 ovarian
SN12C renal = tested on: SN12C renal
SNB-19 CNS = tested on: SNB-19 CNS
SNB-75 CNS = tested on: SNB-75 CNS
SR leukemia = tested on: SR leukemia
SW-620 colon = tested on: SW-620 colon
T-47D breast = tested on: T-47D breast
TK-10 renal = tested on: TK-10 renal
U251 CNS = tested on: U251 CNS
UACC-257 melanoma = tested on: UACC-257 melanoma
UACC-62 melanoma = tested on: UACC-62 melanoma
UO-31 renal = tested on: UO-31 renal
A498 renal = tested on: A498 renal
HL-60(TB) leukemia = tested on: HL-60(TB) leukemia
K-562 leukemia = tested on: K-562 leukemia
MDA-MB-231 breast = tested on: MDA-MB-231 breast

Cc1ccc(/C=N/Nc2cc(C)c3cccc(C)c3n2)s1
TGI (786-0 renal): 11 µM
TGI (A549 NSCLC): 26.3 µM
TGI (ACHN renal): 68.5 µM
TGI (BT-549 breast): 20.8 µM
TGI (CAKI-1 renal): > 100 µM
TGI (CCRF-CEM leukemia): > 100 µM
TGI (COLO 205 colon): 28.7 µM
TGI (DU-145 prostate): > 100 µM
TGI (EKVX NSCLC): 38.2 µM
TGI (HCC-2998 colon): 22.7 µM
TGI (HCT-116 colon): 12.4 µM
TGI (HCT-15 colon): 17.4 µM
TGI (HOP-62 NSCLC): 25.7 µM
TGI (HOP-92 NSCLC): 59.4 µM
TGI (HS 578T breast): 41.6 µM
TGI (HT29 colon): 13 µM
TGI (IGROV1 ovarian): 22.2 µM
TGI (KM12 colon): 23.7 µM
TGI (LOX IMVI melanoma): 4.3 µM
TGI (M14 melanoma): 18.2 µM
TGI (MALME-3M melanoma): 33.1 µM
TGI (MCF7 breast): 18 µM
TGI (MDA-MB-435): 37.2 µM
TGI (MDA-N): 25.1 µM
TGI (MOLT-4 leukemia): 47.7 µM
TGI (NCI-H226 lung): 37.5 µM
TGI (NCI-H23 lung): 35.2 µM
TGI (NCI-H522 lung): 16.9 µM
TGI (NCI/ADR-RES ovarian): 22.5 µM
TGI (OVCAR-3 ovarian): 22.2 µM
TGI (OVCAR-4 ovarian): > 100 µM
TGI (OVCAR-5 ovarian): 28.2 µM
TGI (OVCAR-8 ovarian): 26.9 µM
TGI (PC-3 prostate): 40.8 µM
TGI (RPMI-8226 leukemia): 67.4 µM
TGI (RXF 393 renal): 32.8 µM
TGI (SF-268 CNS): 64.2 µM
TGI (SF-295 CNS): 21.8 µM
TGI (SF-539 CNS): 41.1 µM
TGI (SK-MEL-2 melanoma): 33.2 µM
TGI (SK-MEL-28 melanoma): > 100 µM
TGI (SK-MEL-5 melanoma): 23.9 µM
TGI (SK-OV-3 ovarian): 33.5 µM
TGI (SN12C renal): 25.1 µM
TGI (SNB-19 CNS): > 100 µM
TGI (SNB-75 CNS): > 100 µM
TGI (SR leukemia): > 100 µM
TGI (SW-620 colon): > 100 µM
TGI (T-47D breast): > 100 µM
TGI (TK-10 renal): > 100 µM
TGI (U251 CNS): > 100 µM
TGI (UACC-257 melanoma): 58.9 µM
TGI (UACC-62 melanoma): 43.6 µM
TGI (UO-31 renal): 38.7 µM

CC(C)C1=CC23CCC4C(C)(C(=O)O)CCCC4(C)C2CC1C1C(=O)N(c2ccc(Cc4ccc(N5C(=O)C6C7CC8C9(C)CCCC(C)(C(=O)O)C9CCC8(C=C7C(C)C)C6C5=O)cc4)cc2)C(=O)C13 (stereo not drawn)
TGI (786-0 renal): 22.8 µM
TGI (A498 renal): 22.5 µM
TGI (A549 NSCLC): 15.7 µM
TGI (ACHN renal): 17.8 µM
TGI (CCRF-CEM leukemia): 38.5 µM
TGI (COLO 205 colon): 26.4 µM
TGI (DU-145 prostate): 25.3 µM
TGI (EKVX NSCLC): 24.9 µM
TGI (HCC-2998 colon): 21.7 µM
TGI (HCT-116 colon): 19.1 µM
TGI (HCT-15 colon): 24.5 µM
TGI (HL-60(TB) leukemia): 63.2 µM
TGI (HOP-62 NSCLC): 25.2 µM
TGI (HOP-92 NSCLC): 36.8 µM
TGI (HS 578T breast): 32.8 µM
TGI (HT29 colon): 8.58 µM
TGI (K-562 leukemia): > 100 µM
TGI (KM12 colon): 20.2 µM
TGI (M14 melanoma): 22.1 µM
TGI (MALME-3M melanoma): 30.4 µM
TGI (MCF7 breast): 18.9 µM
TGI (MDA-MB-231 breast): 58.8 µM
TGI (MDA-MB-435): 13.3 µM
TGI (MDA-N): 24.8 µM
TGI (MOLT-4 leukemia): 32.9 µM
TGI (NCI-H226 lung): 28.4 µM
TGI (NCI-H23 lung): 10.9 µM
TGI (NCI-H522 lung): 24.1 µM
TGI (OVCAR-3 ovarian): 22.6 µM
TGI (OVCAR-4 ovarian): 33.2 µM
TGI (OVCAR-5 ovarian): 35.8 µM
TGI (OVCAR-8 ovarian): 22.5 µM
TGI (PC-3 prostate): 15.7 µM
TGI (RPMI-8226 leukemia): > 100 µM
TGI (RXF 393 renal): 27.4 µM
TGI (SF-268 CNS): 27.4 µM
TGI (SF-539 CNS): 20.1 µM
TGI (SK-MEL-2 melanoma): 26.4 µM
TGI (SK-MEL-28 melanoma): 24.9 µM
TGI (SK-MEL-5 melanoma): 24.8 µM
TGI (SN12C renal): 25.3 µM
TGI (SNB-19 CNS): 17.9 µM
TGI (SR leukemia): 28 µM
TGI (SW-620 colon): 31.2 µM
TGI (T-47D breast): 42.6 µM
TGI (TK-10 renal): 29.7 µM
TGI (U251 CNS): 14.4 µM
TGI (UACC-62 melanoma): 29.7 µM
TGI (UO-31 renal): 31.3 µM
